US20120294803A1, “CXCR4 ANTAGONISTS FOR IMAGING OF CANCER AND INFLAMMATORY DISORDERS” (EMORY UNIVERSITY, priority 2010, published 2012)
pKd: −log10 of the molar value.

Experiments:
CXCR4 = CXCR4 (Homo sapiens, UniProt P61073); test: Competition binding assay, metastatic 686LN cells with [18F]M508F and increasing nonradioactive [19F]M508F
Experimental: To determine whether [^18F]M508F specifically and quantitatively would bind to CXCR4 on the cell surface, we tested this using the metastatic 686LN subclones that are CXCR4-positive in vitro. […] Similarly, a competition assay was used to determine the binding affinity of [^18F]M508F to CXCR4. Metastatic 686LN cells, incubated with a constant amount of [^18F]-M508F and increasing concentrations of nonradioactive [^19F]-M508F for 1 h at ambient temperature, were used in the competition binding assay.

[1] = Tissue biodistribution by tissue harvesting and gamma counter in normal mice; assay type: in vivo, C57Black mice; conditions: 15, 30, 60, 120 min post-injection
Experimental: To determine the tissue biodistribution of [^18F]M508F using a gamma counter in regular C57Black mice, we harvested animal organs, including blood, at 15 min, 30 min, 60 min, and 120 min post-injection and measured the uptake of radioactivity in various organs [radioactivity (% injected dose)/g] with n=5 per group.
Results are shown in FIG. 2 as average vales +/−SE.

[2] = tested on: CXCR4-positive orthothopic SCCHN tumors; test: MicroPET imaging in orthotopic SCCHN animal model; assay type: in vivo, mouse; conditions: 30 mins post-injection
Experimental: In vivo biodistribution and tumor uptake studies were performed to determine whether [^18F]M508F can be used to image CXCR4-positive tumors in vivo.

CXCR4-positive paw edema = test: MicroPET/CT imaging in edema animal model; assay type: in vivo, mice; conditions: 30 mins post-injection
Experimental: In vivo biodistribution studies were performed to determine whether [^18F]M508F can be used to image CXCR4-positive inflammation in vivo.

[3] = tested on: CXCR4-positive lung metastases; test: MicroPET/CT imaging in lung metastasis of SCCHN animal model; assay type: in vivo, mouse; conditions: 60 mins post-injection
Experimental: MicroPET/CT scan images of the lungs were performed to determine whether [^18F]M508F can be used to image CXCR4-positive lung metastases in vivo. These images were obtained 60 minutes post-injection of [^18F]M508F.

[4] = tested on: CXCR4-positive immune cells; test: MicroPET/CT imaging of lung inflammation induced by strong-dose radiation; assay type: in vivo, mouse; conditions: 20 Gy irradiation, 60 mins post-injection
Experimental: MicroPET/CT scan images of the lungs were performed to determine whether [^18F]M508F can be used to image lung inflammation induced by the strong-dose radiation therapy in vivo. These images were obtained 60 minutes post-injection of [^18F]M508F.
These images were obtained 60 minutes post-injection of [^18F]M508F.

CXCR4, sequence (P61073 whole entry, species assumed): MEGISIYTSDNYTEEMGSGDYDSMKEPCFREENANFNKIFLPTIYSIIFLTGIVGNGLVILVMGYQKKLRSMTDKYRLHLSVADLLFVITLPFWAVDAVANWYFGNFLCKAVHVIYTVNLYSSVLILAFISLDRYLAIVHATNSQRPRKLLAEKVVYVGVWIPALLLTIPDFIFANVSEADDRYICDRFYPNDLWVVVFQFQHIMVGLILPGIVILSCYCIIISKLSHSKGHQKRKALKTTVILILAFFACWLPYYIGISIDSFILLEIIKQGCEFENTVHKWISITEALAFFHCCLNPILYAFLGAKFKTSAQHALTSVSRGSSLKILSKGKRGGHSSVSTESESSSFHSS

binding affinity better than 64Cu-AMD3100 (CXCR4; 1.85 μM compared with […]): over 50 times | pKd (CXCR4; metastatic 686LN cells, 1 h at ambient temperature, competition with nonradioactive [19F]-M508F, read-out: binding affinity for CXCR4): 5.73 | blood and muscle clearance [1]: fast blood and muscle clearance | clearance pathway [1]: renal clearance pathway | crossing of the blood-brain-barrier ([2]; PET sagittal image): does not cross the blood-brain-barrier
SMILES: Fc1cnc([18F])nc1NCc1ccc(CNc2ccnc(NCCN3CCOCC3)n2)cc1 [[^18F]M508F, N4-(4((2-^18-fluoro,5-fluoropyrimidin-4-ylamino)methyl)benzyl)-N2-(2-morpholinoethyl)pyrimidine-2,4-diamine]
accumulation in the liver [1]: anomalous specific accumulation in the liver | tumor uptake of tracer (PET) [2]: significant uptake | uptake of tracer in paw edema (PET) (CXCR4-positive paw edema): significant uptake | uptake of tracer by metastatic SCCHN tumors in lung (PET/CT) [3]: significant uptake | uptake of tracer by CXCR4-positive immune cells in lung inflammation (PET/CT) [4]: significant uptake
